In brackets after ≈: the same amount, converted by molar mass.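 Briefly, cells in 96-well plates were exposed to five compound concentrations for 48 h, and endpoints were estimated by linear interpolation. GI50 is the concentration that inhibits growth by half. TGI: total growth inhibition.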
Key:
Experiment in all cases: NCI anticancer screen, dose series, 48 h; in the data active = GI50 below about 0.43 µM; inactive = the rest
[1] = system: A549 NSCLC
[2] = system: RPMI-8226 leukemia
[3] = system: HCT-15 colon
[4] = system: SW-620 colon
[5] = system: SK-OV-3 ovarian
[6] = system: SK-MEL-5 melanoma
[7] = system: 786-0 renal
[8] = system: OVCAR-3 ovarian
[9] = system: HCC-2998 colon
[10] = system: CAKI-1 renal
[11] = system: DU-145 prostate

O=C(CSc1nnc(-c2ccc(N=Cc3ccc(Cl)cc3)cc2)o1)Nc1cccc(Cl)c1
> 100 µM: TGI [1] | TGI [2] | TGI [3] | TGI [4] | TGI [5] | TGI [6] | TGI [7]

COc1cc2c(cc1O)C(C)Cc1cc3c(cc1N(C)CC2)OCO3 (centres undefined)
22.8 µM: TGI [5]
8.83 µM: TGI [8]
32.6 µM: TGI [1]
10 µM: TGI [6]
> 74.3 µM: TGI [10]
19.5 µM: TGI [9]
42.7 µM: TGI [3]
> 56.4 µM: TGI [4]
17.4 µM: TGI [7]
> 33.9 µM: TGI [2]

Cn1c(=O)c2nc(N3CCCCC3)cnc2n(C)c1=O
> 100 µM: TGI [1] | TGI [2] | TGI [8] | TGI [9] | TGI [3] | TGI [4] | TGI [5] | TGI [6] | TGI [10]

CC(C)(O)[C@H](CCO)O[Si](c1ccccc1)(c1ccccc1)C(C)(C)C
23.9 µM: TGI [8]
26.8 µM: TGI [4]
49.4 µM: TGI [2]
22.1 µM: TGI [1]
18.1 µM: TGI [9]
20.7 µM: TGI [3]
27.2 µM: TGI [6]
24.5 µM: TGI [5]

N/N=C(\C(=O)Nc1ccc([N+](=O)[O-])cc1)C(C1=Nc2cc([N+](=O)[O-])ccc2NC1)[N+](=O)[O-] (centres undefined)
> 100 µM: TGI [1] | TGI [2] | TGI [8] | TGI [9] | TGI [3] | TGI [4] | TGI [5] | TGI [6] | TGI [10] | TGI [7]

COc1cc2c(cc1OC)C(Cc1c3ccccc3cc3ccccc13)N(C)CC2 (centres undefined)
> 87.6 µM: TGI [3]
> 100 µM: TGI [1] | TGI [10]
84.5 µM: TGI [5]
> 71.5 µM: TGI [4]
35.3 µM: TGI [6]
34 µM: TGI [2]
> 61.1 µM: TGI [8]

C=C(C(=O)O)[C@@H]1C[C@@H]2O[C@H]1CC(C)=CCC/C(C)=C/CC[C@@]2(C)O
> 100 µM: TGI [1] | TGI [2] | TGI [8] | TGI [9] | TGI [11] | TGI [3] | TGI [4] | TGI [6] | TGI [10] | TGI [7]

CCNCCCCNCC
> 3750 µM: TGI [1] | TGI [2] | TGI [8] | TGI [9] | TGI [3] | TGI [4] | TGI [5] | TGI [6] | TGI [10]

CN1CCN(c2ccc(-n3cc(C(=O)O)c(=O)c4cc(F)c(N5CCN(C)CC5)cc43)nc2)CC1
> 100 µM: TGI [1] | TGI [2] | TGI [8] | TGI [11] | TGI [3] | TGI [4] | TGI [5] | TGI [10] | TGI [7]

CC(=O)O[C@H]1[C@@H](N2CCN(C)CC2)C[C@H]2[C@@H]3CC=C4C[C@@H](N5CCCC5)CC[C@]4(C)[C@H]3CC[C@@]21C
73 µM: TGI [6]
44.2 µM: TGI [2]
> 100 µM: TGI [1] | TGI [8] | TGI [9] | TGI [3] | TGI [4] | TGI [5] | TGI [10] | TGI [7]

COC(=O)NN1C(=O)C(=P(c2ccccc2)(c2ccccc2)c2ccccc2)C(C(=O)OC)=C1C
> 100 µM: TGI [2] | TGI [8] | TGI [3] | TGI [4] | TGI [5] | TGI [6] | TGI [10]

CCNCCNC(=O)c1ccc(Br)cc1
> 100 µM: TGI [1] | TGI [2] | TGI [8] | TGI [9] | TGI [3] | TGI [4] | TGI [5] | TGI [6] | TGI [10] | TGI [7]

O=c1[nH]c(=O)n(C2CC(O)C(CO)O2)cc1C#Cc1cc(F)cc(F)c1 (centres undefined)
> 100 µM: TGI [1] | TGI [2] | TGI [8] | TGI [9] | TGI [3] | TGI [4] | TGI [5] | TGI [6] | TGI [10] | TGI [7]

Cc1cc2[nH]c3c(C#N)c(-c4ccccc4)c(CN4CCOCC4)c(=O)n3c2cc1C
> 100 µM: TGI [1] | TGI [2] | TGI [8] | TGI [9] | TGI [3] | TGI [4] | TGI [5] | TGI [10] | TGI [7]

S=C1SC(c2ccc(Cl)cc2)(c2ccc(Cl)cc2)c2ccccc21
> 100 µM: TGI [1] | TGI [8] | TGI [9] | TGI [11] | TGI [3] | TGI [4] | TGI [5] | TGI [6] | TGI [10] | TGI [7]

O=C(O)CNS(=O)(=O)c1ccc(NC(=O)Nc2ccccc2)cc1
> 100 µM: TGI [1] | TGI [2] | TGI [8] | TGI [9] | TGI [3] | TGI [4] | TGI [5] | TGI [6] | TGI [10]

C/C(=N/N)c1ccc2[nH]c3c(C)cc([N+](=O)[O-])c(C)c3c2c1
40.6 µM: TGI [1]
22.2 µM: TGI [7]
30.7 µM: TGI [8]
64 µM: TGI [2]
31.6 µM: TGI [9]
24.7 µM: TGI [3] | TGI [4]
18.1 µM: TGI [6]

O=C(c1ccccc1)c1c(CNCc2ccccc2)n(C(=O)c2ccccc2)c2ccccc12
55.1 µM: TGI [2]
> 100 µM: TGI [1] | TGI [9] | TGI [3] | TGI [4] | TGI [6] | TGI [10] | TGI [7]
65.7 µM: TGI [8]

Nc1ccc(N)c2c1C(=O)c1c(N)ccc(N)c1C2=O
> 100 µM: TGI [1] | TGI [2] | TGI [9] | TGI [3] | TGI [4] | TGI [5] | TGI [6] | TGI [10] | TGI [7]
81.9 µM: TGI [8]

NC(N)=Nc1nc2ccccc2[nH]1
inactive: GI50 [1] 61 µg/mL (≈ 348 µM) | GI50 [2] 2.98 µg/mL (≈ 17 µM) | GI50 [8] 38.4 µg/mL (≈ 219 µM) | GI50 [9] 34.1 µg/mL (≈ 195 µM) | GI50 [3] 80.9 µg/mL (≈ 462 µM) | GI50 [4] 60.6 µg/mL (≈ 346 µM) | GI50 [5] 150 µg/mL (≈ 856 µM) | GI50 [6] 31.1 µg/mL (≈ 178 µM) | GI50 [10] 48.8 µg/mL (≈ 279 µM)
29.7 µg/mL: TGI [2]
> 150 µg/mL: TGI [1] | TGI [8] | TGI [9] | TGI [3] | TGI [4] | TGI [5] | TGI [10]
99 µg/mL: TGI [6]

C[C@]12CCC(=O)C=C1CC[C@@H]1C2CC[C@]2(C)Nc3c(ncn3-c3ccc(F)cc3)CC12 (some centres undefined)
29.7 µM: TGI [6]
88.8 µM: TGI [9]
> 100 µM: TGI [1] | TGI [8] | TGI [11] | TGI [4] | TGI [5] | TGI [10] | TGI [7]

— PubChem BioAssay (NCI)
